Assay results: patent US12391737B2, “Soluble NPY2 receptor agonists” (Boehringer Ingelheim International GmbH, priority 2020, dated 2025)

Key:
[1] = biological target: T1, Human Neuropeptide Y2 Receptor (Homo sapiens, UniProt P49146); assay: Radioligand binding competition assay (RLB); conditions: Table 3, 125I-PYY(1-36) competition; read-out: Ki
T1 construct: purchased CHEMICON HTS066M
T1 sequence (P49146 1-381): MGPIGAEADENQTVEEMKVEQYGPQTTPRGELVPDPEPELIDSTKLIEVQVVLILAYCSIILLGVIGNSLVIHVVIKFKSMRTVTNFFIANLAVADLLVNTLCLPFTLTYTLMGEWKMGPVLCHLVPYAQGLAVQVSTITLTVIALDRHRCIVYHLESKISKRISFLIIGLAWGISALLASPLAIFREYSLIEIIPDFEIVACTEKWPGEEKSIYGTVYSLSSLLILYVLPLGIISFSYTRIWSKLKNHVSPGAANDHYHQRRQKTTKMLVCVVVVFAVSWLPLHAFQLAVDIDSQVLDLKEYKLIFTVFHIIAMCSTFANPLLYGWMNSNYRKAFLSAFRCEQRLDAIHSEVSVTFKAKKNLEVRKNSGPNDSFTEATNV
Method in brief: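 Competition binding used membranes expressing the receptor (0.5 μg protein/well) in 50 mM HEPES, 5 mM MgCl2, 1 mM CaCl2, pH 7.4 with 0.2% ovalbumin, incubated 2 h at room temperature with shaking. Bound radioligand was collected by filtration onto PEI-soaked GF/C filters and counted; IC50 from nonlinear sigmoidal fits.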

Solubility determination = conditions: for Sol6: pH 6; for Sol7: pH 7
Method in brief: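 Sample: TFA-salt peptide at 10 mg/ml target in 0.1 M Na diphosphate, pH 6.4 or 7.0, shaken 2 h RT, filtered, diluted to 1 mg/ml.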

Structure (SMILES): CC[C@H](C)[C@H](NC(=O)[C@H](CCC(=O)O)NC(=O)[C@H](CCC(=O)O)NC(=O)[C@@H]1CCCN1C(=O)[C@H](CCCCNC(=O)CCCCCNC(=O)CC[C@H](NC(=O)CCCCCCCCCCCCCCCCC(=O)O)C(=O)O)NC(=O)[C@H](CCC(=O)O)NC(=O)[C@@H]1CCCN1C(=O)[C@H](C)NC(=O)CC(C)C)C(=O)N[C@@H](C)C(=O)N[C@H](C(=O)N1CCC[C@H]1C(=O)N[C@@H](CCC(=O)O)C(=O)N[C@@H](CCC(=O)O)C(=O)N[C@@H](CC(C)C)C(=O)N[C@@H](CCC(N)=O)C(=O)N[C@@H](CCCNC(=N)N)C(=O)N[C@@H](Cc1ccc(O)cc1)C(=O)N[C@@H](Cc1ccc(O)cc1)C(=O)N[C@H](C(=O)N[C@@H](CO)C(=O)N[C@@H](CC(C)C)C(=O)N[C@@H](CCCNC(=N)N)C(=O)N[C@@H](Cc1c[nH]cn1)C(=O)N[C@@H](Cc1ccc(O)cc1)C(=O)N[C@@H](Cc1ccc(O)cc1)C(=O)N[C@@H](CC(N)=O)C(=O)N[C@@H](Cc1c[nH]c2ccccc12)C(=O)N[C@@H](CC(C)C)C(=O)N[C@H](C(=O)N[C@@H](CCCNC(=N)N)C(=O)N[C@@H](CCC(N)=O)C(=O)N[C@@H](CCCNC(=N)N)C(=O)N[C@@H](Cc1ccc(O)cc1)C(N)=O)[C@@H](C)O)C(C)C)[C@@H](C)O [Compound 45, N{alpha-4}-(3-methylbutanoyl)-N{epsilon-7}-(6-[(4S)-4-carboxy-4-(17-carboxyheptadecanamido)butanamido]hexanoyl)-[4A,7K,9E,11I,13T,18Q,22V,28Y,30W,31L]-hPYY(4-36)]
- Ki [1]: 6.17 nM
- Sol6 (Solubility determination): >10.0 mg/mL
- Sol7 (Solubility determination): >10.0 mg/mL

Structure (SMILES): CC(C)CC(=O)N[C@@H](C)C(=O)N1CCC[C@H]1C(=O)N[C@@H](C)C(=O)N[C@@H](CCCCNC(=O)CCCCCNC(=O)CC[C@H](NC(=O)CCCCCCCCCCCCCCCCC(=O)O)C(=O)O)C(=O)N1CCC[C@H]1C(=O)N[C@@H](CCC(=O)O)C(=O)N[C@@H](CCC(=O)O)C(=O)N[C@@H](C)C(=O)N[C@@H](C)C(=O)N[C@@H](CO)C(=O)N1CCC[C@H]1C(=O)N[C@@H](CCC(=O)O)C(=O)N[C@@H](CCC(=O)O)C(=O)N[C@@H](CC(C)C)C(=O)N[C@@H](CCC(N)=O)C(=O)N[C@@H](CCCNC(=N)N)C(=O)N[C@@H](Cc1ccc(O)cc1)C(=O)N[C@@H](Cc1ccc(O)cc1)C(=O)N[C@H](C(=O)N[C@@H](C)C(=O)N[C@@H](CC(C)C)C(=O)N[C@@H](CCCNC(=N)N)C(=O)N[C@@H](Cc1c[nH]cn1)C(=O)N[C@@H](Cc1ccc(O)cc1)C(=O)N[C@@H](Cc1ccc(O)cc1)C(=O)N[C@@H](CC(N)=O)C(=O)N[C@@H](Cc1c[nH]c2ccccc12)C(=O)N[C@@H](CC(C)C)C(=O)N[C@H](C(=O)N[C@@H](CCCNC(=N)N)C(=O)N[C@@H](CCC(N)=O)C(=O)N[C@@H](CCCNC(=N)N)C(=O)N[C@@H](Cc1ccc(O)cc1)C(N)=O)[C@@H](C)O)C(C)C [Compound 157, N{alpha-4}-(3-methylbutanoyl)-N{epsilon-7}-(6-[(4S)-4-carboxy-4-(17-carboxyheptadecanamido)butanamido]hexanoyl)-[4A,6A,7K,9E,11A,18Q,22V,23A,28Y,30W,31L]-hPYY(4-36)]
- Ki [1]: 1.68 nM
- Sol6 (Solubility determination): 0.0 mg/mL
- Sol7 (Solubility determination): 0.3 mg/mL

Structure (SMILES): CC[C@H](C)[C@H](NC(=O)[C@H](CCC(=O)O)NC(=O)[C@H](CCC(=O)O)NC(=O)[C@@H]1CCCN1C(=O)[C@@H](NC(=O)[C@H](C)NC(=O)[C@H](CC(=O)O)NC(=O)[C@H](CCC(=O)O)NC(=O)[C@H](CCC(=O)O)NC(=O)[C@@H]1CCCN1C(=O)[C@H](CCCCNC(=O)CCCCCNC(=O)CC[C@H](NC(=O)CCCCCCCCCCCCCCCCC(=O)O)C(=O)O)NC(=O)[C@H](CCC(=O)O)NC(=O)[C@@H]1CCCN1C(=O)[C@H](C)NC(=O)CC(C)C)[C@@H](C)O)C(=O)N[C@@H](CCC(N)=O)C(=O)N[C@@H](CCCNC(=N)N)C(=O)N[C@@H](Cc1ccc(O)cc1)C(=O)N[C@@H](Cc1ccc(O)cc1)C(=O)N1CCC[C@H]1C(=O)N[C@@H](CO)C(=O)N[C@@H](CC(C)C)C(=O)N[C@@H](CCCNC(=N)N)C(=O)N[C@@H](Cc1c[nH]cn1)C(=O)N[C@@H](Cc1ccc(O)cc1)C(=O)N[C@@H](Cc1ccc(O)cc1)C(=O)N[C@@H](CC(N)=O)C(=O)N[C@@H](Cc1c[nH]c2ccccc12)C(=O)N[C@@H](CC(C)C)C(=O)N[C@H](C(=O)N[C@@H](CCCNC(=N)N)C(=O)N[C@@H](CCC(N)=O)C(=O)N[C@@H](CCCNC(=N)N)C(=O)N[C@@H](Cc1ccc(O)cc1)C(N)=O)[C@@H](C)O [Compound 17, N{alpha-4}-(3-methylbutanoyl)-N{epsilon-7}-(6-[(4S)-4-carboxy-4-(17-carboxyheptadecanamido)butanamido]hexanoyl)[4A,7K,9E,13T,17I,18Q,22P,28Y,30W,31L]-hPYY(4-36)]
- Ki [1]: 24.6 nM
- Sol6 (Solubility determination): 10.0 mg/mL
- Sol7 (Solubility determination): 10.0 mg/mL

Structure (SMILES): CC[C@H](C)[C@H](NC(=O)[C@H](CCC(=O)O)NC(=O)[C@H](CCC(=O)O)NC(=O)[C@@H]1CCCN1C(=O)[C@@H](NC(=O)[C@H](C)NC(=O)[C@H](C)NC(=O)[C@H](C)NC(=O)[C@H](CCC(=O)O)NC(=O)[C@@H]1CCCN1C(=O)[C@H](CCCCNC(=O)CCCCCNC(=O)CC[C@H](NC(=O)CCCCCCCCCCCCCCCCC(=O)O)C(=O)O)NC(=O)[C@H](CCC(=O)O)NC(=O)[C@@H]1CCCN1C(=O)[C@H](C)NC(=O)CC(C)C)[C@@H](C)O)C(=O)N[C@@H](CCC(N)=O)C(=O)N[C@@H](CCCNC(=N)N)C(=O)N[C@@H](Cc1ccc(O)cc1)C(=O)N[C@@H](Cc1ccc(O)cc1)C(=O)N[C@H](C(=O)N[C@@H](C)C(=O)N[C@@H](CC(C)C)C(=O)N[C@@H](CCCNC(=N)N)C(=O)N[C@@H](Cc1c[nH]cn1)C(=O)N[C@@H](Cc1ccc(O)cc1)C(=O)N[C@@H](Cc1ccc(O)cc1)C(=O)N[C@@H](CC(N)=O)C(=O)N[C@@H](Cc1c[nH]c2ccccc12)C(=O)N[C@@H](CC(C)C)C(=O)N[C@H](C(=O)N[C@@H](CCCNC(=N)N)C(=O)N[C@@H](CCC(N)=O)C(=O)N[C@@H](CCCNC(=N)N)C(=O)N[C@@H](Cc1ccc(O)cc1)C(N)=O)[C@@H](C)O)C(C)C [Compound 178, N{alpha-4}-(3-methylbutanoyl)-N{epsilon-7}-(6-[(4S)-4-carboxy-4-(17-carboxyheptadecanamido)butanamido]hexanoyl)-[4A,7K,9E,10A,11A,13T,17I,18Q,22V,23A,28Y,30W,31L]-hPYY(4-36)]
- Ki [1]: 3.39 nM
- Sol6 (Solubility determination): 0.0 mg/mL
- Sol7 (Solubility determination): 0.4 mg/mL

Structure (SMILES): CC(C)CC(=O)N[C@@H](C)C(=O)N1CCC[C@H]1C(=O)N[C@@H](CCC(=O)O)C(=O)N[C@@H](CCCCNC(=O)CCCCCNC(=O)CC[C@H](NC(=O)CCCCCCCCCCCCCCCCC(=O)O)C(=O)O)C(=O)N1CCC[C@H]1C(=O)N[C@@H](CCC(=O)O)C(=O)N[C@@H](CCC(=O)O)C(=O)N[C@@H](CC(=O)O)C(=O)N[C@@H](C)C(=O)N[C@H](C(=O)N1CCC[C@H]1C(=O)N[C@@H](CCC(=O)O)C(=O)N[C@@H](CCC(=O)O)C(=O)N[C@H](C(=O)N[C@@H](CCC(N)=O)C(=O)N[C@@H](CCCNC(=N)N)C(=O)N[C@@H](Cc1ccc(O)cc1)C(=O)N[C@@H](Cc1ccc(O)cc1)C(=O)N[C@H](C(=O)N[C@@H](CO)C(=O)N[C@@H](CC(C)C)C(=O)N[C@@H](CCCNC(=N)N)C(=O)N[C@@H](Cc1c[nH]cn1)C(=O)N[C@@H](Cc1ccc(O)cc1)C(=O)N[C@@H](Cc1ccc(O)cc1)C(=O)N[C@@H](CC(N)=O)C(=O)N[C@@H](Cc1c[nH]c2ccccc12)C(=O)N[C@@H](CC(C)C)C(=O)N[C@H](C(=O)N[C@@H](CCCNC(=N)N)C(=O)N[C@@H](CCC(N)=O)C(=O)N[C@@H](CCCNC(=N)N)C(=O)N[C@@H](Cc1ccc(O)cc1)C(N)=O)[C@@H](C)O)C(C)C)[C@@H](C)O)[C@@H](C)O [Compound 152, N{alpha-4}-(3-methylbutanoyl)-N{epsilon-7}-(6-[(4S)-4-carboxy-4-(17-carboxyheptadecanamido)butanamido]hexanoyl)-[4A,7K,9E,13T,17T,18Q,22V,28Y,30W,31L]-hPYY(4-36)]
- Ki [1]: 1.32 nM
- Sol6 (Solubility determination): 8.8 mg/mL
- Sol7 (Solubility determination): 8.8 mg/mL
